Values of other authors in patent publication US20240278494A1, “THREE-DIMENSIONAL ADDITIVE FABRICATION WITH SUPPORT FLUID” (GEORGIA TECH RESEARCH CORPORATION, priority 2021, published 2024).
Like-named read-outs stand apart in the source and are kept apart here.

How the values were obtained:
[1] = Table 2, resin additives
[2] = for ρ: Table 2, resin additives; for Density: Table 1, acrylate monomers
[3] = not given; remark: listed apart in the source

Row | Compound | γ (surface tension) [1] [mN/m] | Viscosity (Table 2, resin additives) [cP] | ρ [2] [g/mL] | Water solubility ([3]; Table 1, acrylate monomers) [µg/mL] | Viscosity (Table 1, acrylate monomers) [cP] | Density [2] [g/mL] | Water solubility ([3]; Table 2, resin additives) [µg/mL]
1 | OCCCO [1,3-Propanediol] | 46.2 | 52 | 1.0597 |  |  |  | 
2 | C=CC(=O)OCCCC [BA, Butyl Acrylate] | 20 | 0.92 | 0.9 |  |  |  | 
3 | C1CCC2CCCCC2C1 (centres unmarked) [Decalin, Decahydronaphthalene] |  | 1.788 | 0.896 |  |  |  | 
4 | C=CC(=O)OCC(CC)CCCC (centres unmarked) [EHA, 2-Ethylhexyl acrylate] | 26 | 1.7 | 0.885 |  |  |  | 
5 | C=CC(=O)OCCCCCCOC(=O)C=C [HDDA, 1,6-Hexanediol diacrylate] |  |  |  | 100 | 9 | 1.02 | 
6 | C=CC(=O)OC [MA, Methyl Acrylate] |  | 0.6 | 0.95 |  |  |  | 50000
7 | C=C(C)C(=O)OC [MMA, Methyl Methacrylate] | 31.4 | 0.6 | 0.94 |  |  |  | 
8 | CCCCCCCC/C=C\CCCCCCCC(=O)O [OA, Oleic Acid] | 31.92 | 27.64 | 0.895 |  |  |  | <100
9 | COCC(C)OC(C)=O (centres unmarked) [PGMEA, Propylene glycol methyl ether acetate] | 26.9 | 0.8 | 0.962 |  |  |  | 19800
10 | C=C(C)C(=O)OCCOCCOCCOC(=O)C(=C)C [TEGDMA, Triethylene glycol dimethacrylate] |  |  |  | 2410 | 50 | 1.072 | 
11 | CCCCOC(C)=O [n-Butyl Acetate] | 25.3 | 1.1002 | 0.8825 |  |  |  | 680
12 | Dimethylbenzene [Xylene] | 28 | 0.812 | 0.865 |  |  |  | <100
13 | Urethane dimethacrylate [UDMA] |  |  |  |  | 6.75 | 1.129 | 
